From publication PMC5951806, “Rapid labelling and covalent inhibition of intracellular native proteins using ligand-directed N-acyl-N-alkyl sulfonamide” (Nature Communications, 2018)
Where “and” joins values, the source holds several entries; their conditions need not be identical. Identical values can stand only once.

Columns and labels:
Assay in all cases: TMT LC-MSMS of 11-labelled proteins
Assay type in all cases: cell-based
[1] = target: T1, heat shock protein 75 kDa, mitochondrial (TRAP1) (Homo sapiens, UniProt Q12931)
T1 sequence (Q12931 60-704): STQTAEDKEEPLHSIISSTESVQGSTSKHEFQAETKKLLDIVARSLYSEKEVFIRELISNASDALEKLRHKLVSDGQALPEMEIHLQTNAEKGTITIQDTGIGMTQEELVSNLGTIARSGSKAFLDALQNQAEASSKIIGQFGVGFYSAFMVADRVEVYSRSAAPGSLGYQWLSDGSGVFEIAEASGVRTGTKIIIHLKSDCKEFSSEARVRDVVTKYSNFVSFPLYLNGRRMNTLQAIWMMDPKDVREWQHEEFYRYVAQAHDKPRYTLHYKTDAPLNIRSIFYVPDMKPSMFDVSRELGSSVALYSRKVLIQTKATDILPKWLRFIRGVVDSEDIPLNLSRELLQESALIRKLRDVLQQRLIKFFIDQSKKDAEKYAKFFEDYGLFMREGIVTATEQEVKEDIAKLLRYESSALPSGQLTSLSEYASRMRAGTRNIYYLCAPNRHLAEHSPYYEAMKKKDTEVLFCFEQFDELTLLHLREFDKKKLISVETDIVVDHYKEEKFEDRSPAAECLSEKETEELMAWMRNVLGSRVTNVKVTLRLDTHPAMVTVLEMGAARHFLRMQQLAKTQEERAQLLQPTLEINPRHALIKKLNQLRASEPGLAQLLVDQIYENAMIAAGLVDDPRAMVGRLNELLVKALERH

[2] = target: Multidrug resistance-associated protein 5 (ABCC5) (Homo sapiens, UniProt O15440)
Sequence of Multidrug resistance-associated protein 5 (ABCC5) (O15440 whole entry, canonical isoform): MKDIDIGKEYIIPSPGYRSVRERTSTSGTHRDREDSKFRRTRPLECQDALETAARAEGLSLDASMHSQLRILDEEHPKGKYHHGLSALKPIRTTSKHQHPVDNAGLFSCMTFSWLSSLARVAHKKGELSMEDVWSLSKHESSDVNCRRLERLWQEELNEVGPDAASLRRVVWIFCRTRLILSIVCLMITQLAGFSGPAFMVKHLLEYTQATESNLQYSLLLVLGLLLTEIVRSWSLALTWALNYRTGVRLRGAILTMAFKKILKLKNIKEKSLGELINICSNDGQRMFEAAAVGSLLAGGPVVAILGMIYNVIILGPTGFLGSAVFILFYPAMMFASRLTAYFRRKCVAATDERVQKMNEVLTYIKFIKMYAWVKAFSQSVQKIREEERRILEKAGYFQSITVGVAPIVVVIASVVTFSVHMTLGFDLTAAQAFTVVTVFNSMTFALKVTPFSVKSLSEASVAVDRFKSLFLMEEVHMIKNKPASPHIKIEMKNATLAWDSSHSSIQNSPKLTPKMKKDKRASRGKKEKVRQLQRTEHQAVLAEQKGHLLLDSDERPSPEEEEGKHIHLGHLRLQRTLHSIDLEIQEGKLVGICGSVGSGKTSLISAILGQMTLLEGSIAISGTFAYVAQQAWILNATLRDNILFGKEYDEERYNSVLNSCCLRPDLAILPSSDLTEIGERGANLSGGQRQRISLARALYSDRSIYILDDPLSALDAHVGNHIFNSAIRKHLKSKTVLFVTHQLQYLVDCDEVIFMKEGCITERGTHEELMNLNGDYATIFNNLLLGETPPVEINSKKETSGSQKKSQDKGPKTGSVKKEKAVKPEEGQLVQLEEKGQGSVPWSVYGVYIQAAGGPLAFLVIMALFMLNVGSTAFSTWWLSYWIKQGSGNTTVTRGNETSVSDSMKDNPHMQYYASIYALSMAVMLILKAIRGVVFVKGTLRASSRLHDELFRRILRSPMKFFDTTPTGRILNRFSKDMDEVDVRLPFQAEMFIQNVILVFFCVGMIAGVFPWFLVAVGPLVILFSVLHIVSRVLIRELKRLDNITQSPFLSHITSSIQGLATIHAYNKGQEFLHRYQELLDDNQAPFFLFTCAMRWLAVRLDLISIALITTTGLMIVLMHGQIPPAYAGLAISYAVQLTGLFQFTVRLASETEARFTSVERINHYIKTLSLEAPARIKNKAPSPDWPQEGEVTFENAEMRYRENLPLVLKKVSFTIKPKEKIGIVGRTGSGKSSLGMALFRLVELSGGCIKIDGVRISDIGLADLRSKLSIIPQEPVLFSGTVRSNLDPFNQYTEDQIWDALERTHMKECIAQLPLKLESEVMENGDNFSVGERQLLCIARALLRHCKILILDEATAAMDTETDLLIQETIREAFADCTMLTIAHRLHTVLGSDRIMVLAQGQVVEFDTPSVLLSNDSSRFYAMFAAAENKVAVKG

[3] = target: Isoform 2 of Heat shock protein HSP 90-alpha (HSP90AA1) (Homo sapiens, UniProt P07900)
[4] = sheet Merged, SKBR3 cells, 11 0.5 µM 3 h vs DMSO
[5] = sheet Merged, SKBR3 cells, 11 0.5 µM 3 h vs with PU-H71 10 µM
[6] = sheet Exp1, SKBR3 cells, 11 0.5 µM 3 h vs DMSO
[7] = sheet Exp1, SKBR3 cells, 11 0.5 µM 3 h vs with PU-H71 10 µM

**Q.** What does the source list for CC(=O)Oc1ccc2c(c1)Oc1cc(OC(C)=O)ccc1C21OC(=O)c2cc(C(=O)NCCOCCOCCNC(=O)CCCC(=O)N(CC#N)S(=O)(=O)c3ccc(C(=O)NCCCn4c(Sc5cc6c(cc5I)OCO6)nc5c(N)ncnc54)cc3)ccc21 [compound 11]?
**A.** Abundance Ratio: (11) / (11 with PU-H71) ([1]; Exp3, TRAP1): 0.787; Abundance Ratio: (11) / (DMSO) ([1]; Exp3, TRAP1): 2.947; Abundances (Grouped): 11 ([1]; Exp3, TRAP1): 28; Abundances (Grouped): 11 with PU-H71 ([1]; Exp3, TRAP1, with PU-H71): 35.6; Abundance Ratio: (11) / (DMSO) [1, 4]: 2.947; Abundance Ratio: (11) / (11 with PU-H71) [1, 5]: 0.787; Abundance Ratio: (11) / (11 with PU-H71) ([2]; Exp3, ABCC5): 0.868; Abundance Ratio: (11) / (DMSO) ([2]; Exp3, ABCC5): 4.007; Abundances (Grouped): 11 ([2]; Exp3, ABCC5): 227.2; Abundances (Grouped): 11 with PU-H71 ([2]; Exp3, ABCC5): 261.9; Abundance Ratio: (11) / (DMSO) [2, 6]: 1.935; Abundance Ratio: (11) / (11 with PU-H71) [2, 7]: 1.002; Abundance Ratio: (11) / (11 with PU-H71) ([2]; sheet Exp2, ABCC5): 0.947; Abundance Ratio: (11) / (DMSO) ([2]; sheet Exp2, ABCC5): 2.92; Abundances (Grouped): 11 ([2]; sheet Exp2, ABCC5): 189.2; Abundances (Grouped): 11 with PU-H71 ([2]; sheet Exp2, ABCC5): 199.7; Abundance Ratio: (11) / (DMSO) [2, 4]: 3.871; Abundance Ratio: (11) / (11 with PU-H71) [2, 5]: 0.868; Abundance Ratio: (11) / (11 with PU-H71) ([3]; Exp3, HSP90AA1): 4.154; Abundance Ratio: (11) / (DMSO) ([3]; Exp3, HSP90AA1): 13.53; Abundances (Grouped): 11 ([3]; Exp3, HSP90AA1): 1235.3; Abundances (Grouped): 11 with PU-H71 ([3]; Exp3, HSP90AA1): 297.4; Abundance Ratio: (11) / (DMSO) [3, 6]: 12.472; Abundance Ratio: (11) / (11 with PU-H71) [3, 7]: 3.732; Abundance Ratio: (11) / (11 with PU-H71) ([3]; sheet Exp2, HSP90AA1): 3.971; Abundance Ratio: (11) / (DMSO) ([3]; sheet Exp2, HSP90AA1): 11.996; Abundances (Grouped): 11 ([3]; sheet Exp2, HSP90AA1): 903.3; Abundances (Grouped): 11 with PU-H71 ([3]; sheet Exp2, HSP90AA1): 227.5; Abundance Ratio: (11) / (DMSO) [3, 4]: 13.5 and 13.53; Abundance Ratio: (11) / (11 with PU-H71) [3, 5]: 4.154
